SMILES	melting point
COc1ccc2ncnc(N3CCN(C(=O)Nc4ccc(Oc5ccccc5)cc4)CC3)c2c1 [Compound 307, 4-(6-Methoxy-4-quinazolinyl)-N-(4-phenoxyphenyl)-1-piperazinecarboxamide]	139 to 140 °C
CC(C)c1ccc(NC(=O)N2CCN(c3ncnc4ccc(I)cc34)CC2)cc1 [Compound 304, 4-(6-Iodo-4-quinazolinyl)-N-(4-isopropylphenyl)-1-piperazinecarboxamide]	211 to 212 °C
CC(=O)c1ccc(NC(=O)N2CCN(c3ncnc4c(Cl)cccc34)CC2)cc1 [Compound 325, N-(4-Acetylphenyl)-4-(8-chloro-4-quinazolinyl)-1-piperazinecarboxamide]	208 to 209 °C
COc1cc2ccnc(N3CCN(C(=O)Nc4ccc(Oc5ccccc5)cc4)CC3)c2cc1OC [Compound 423, 4-(6,7-Dimethoxy-1-isoquinolyl)-N-(4-phenoxyphenyl)-1-piperazinecarboxamide]	178 to 179 °C
S=C(NCc1ccccc1)N1CCN(c2ccnc3ccc(Cl)cc23)CC1 [Compound 400, N-Benzyl-4-(6-chloro-4-quinolyl)-1-piperazinethiocarboxamide]	173 to 174 °C
COc1ccc2ncnc(N3CCN(C(=S)NCc4cccnc4)CC3)c2c1 [Compound 310, 4-(6-Methoxy-4-quinazolinyl)-N-(3-picolyl)-1-piperazinethiocarboxamide]	139 to 140 °C
COc1cc2ncnc(N3CCN(C(=S)Nc4cccc(C(C)C)c4)CC3)c2cc1OC [Compound 151, 4-(6,7-Dimethoxy-4-quinazolinyl)-N-(3-isopropylphenyl)-1-piperazinethiocarboxamide]	169 to 171 °C
CCn1c(=O)n(CC)c2cc3c(N4CCN(C(=O)Nc5ccc(Oc6ccccc6)cc5)CC4)ncnc3cc21 [Compound 122, 4-(1,3-Diethyl-1,3-dihydro-2-oxo-2H-imidazo[4,5-g]quinazolin-8-yl)-N-(4-phenoxyphenyl)-1-piperazinecarboxamide]	168 to 169 °C
COc1cc2ncnc(N3CCN(C(=S)NCc4ccc(Cl)c(Cl)c4)CC3)c2cc1OC [Compound 195, N-(3,4-Dichlorobenzyl)-4-(6,7-dimethoxy-4-quinazolinyl)-1-piperazinethiocarboxamide]	197 to 200 °C
S=C(NCc1ccccc1)N1CCN(c2ncnc3cc(Cl)ccc23)CC1 [Compound 317, N-Benzyl-4-(7-chloro-4-quinazolinyl)-1-piperazinethiocarboxamide]	70 to 71 °C
COc1cc2ncnc(N3CCN(C(=S)NCCN4CCOCC4)CC3)c2cc1OC [Compound 142, 4-(6,7-Dimethoxy-4-quinazolinyl)-N-(2-morpholinoethyl)-1-piperazinethiocarboxamide]	79 to 81 °C
O=C(Nc1ccc(Oc2ccccc2)cc1)N1CCN(c2ncnc3ccc(Cl)cc23)CC1 [Compound 301, 4-(6-Chloro-4-quinazolinyl)-N-(4-phenoxyphenyl)-1-piperazinecarboxamide]	116 to 120 °C
CCn1c(=O)n(C)c2cc3c(N4CCN(C(=O)Nc5ccc(Oc6ccccc6)cc5)CC4)ncnc3cc21 [Compound 387, 4-(1,3-Dihydro-3-ethyl-1-methyl-2-oxo-2H-imidazo[4,5-g]quinazolin-8-yl)-N-(4-phenoxyphenyl)-1-piperazinecarboxamide]	250 to 251 °C
COc1cc2ncnc(N3CCN(C(=S)Nc4ccc5ccc6cccc7ccc4c5c67)CC3)c2cc1OC	140 to 145 °C
COc1cc2c(N3CCN(C(=O)Nc4ccc([N+](=O)[O-])cc4)CC3)ncnc2c(OC)c1OC [Compound 107, N-(4-Nitrophenyl)-4-(6,7,8-trimethoxy-4-quinazolinyl)-1-piperazinecarboxamide]	197 to 199 °C
Cn1c(=O)n(C)c2cc3c(N4CCN(C(=O)Nc5ccc(Oc6ccccc6)cc5)CC4)ncnc3cc21 [Compound 121, 4-(1,3-Dihydro-1,3-dimethyl-2-oxo-2H-imidazo[4,5-g]quinazolin-8-yl)-N-(4-phenoxyphenyl)-1-piperazinecarboxamide]	250 to 255 °C
CCCn1c(=O)n(CCC)c2cc3c(N4CCN(C(=O)Nc5ccc(Oc6ccccc6)cc5)CC4)ncnc3cc21 [Compound 389, 4-(1,3-Dihydro-1,3-dipropyl-2-oxo-2H-imidazo[4,5-g]quinazolin-8-yl)-N-(4-phenoxyphenyl)-1-piperazinecarboxamide]	179 to 180 °C
COc1cc2ncnc(N3CCN(C(=O)Nc4ccc(Oc5ccccc5)cc4)CC3)c2cc1OS(C)(=O)=O [Compound 350, 4-(6-Mesyloxy-7-methoxy-4-quinazolinyl)-N-(4-phenoxyphenyl)-1-piperazinecarboxamide]	228 to 229 °C

Other lines, results leading:

melting point	SMILES
208 to 209 °C	CCSc1ccc(NC(=O)N2CCN(c3ncnc4cc(OC)c(OC)cc34)CC2)cc1 [Compound 219, 4-(6,7-Dimethoxy-4-quinazolinyl)-N-(4-ethylthiophenyl)-1-piperazinecarboxamide]
129 to 132 °C	COc1cc2ncnc(N3CCN(C(=S)Nc4ccc(I)cc4)CC3)c2cc1OC [Compound 47, 4-(6,7-Dimethoxy-4-quinazolinyl)-N-(4-iodophenyl)-1-piperazinethiocarboxamide]
202 to 204 °C	COc1cc2ncnc(N3CCN(C(=S)NCc4ccc(C)cc4)CC3)c2cc1OC [Compound 147, 4-(6,7-Dimethoxy-4-quinazolinyl)-N-(4-methylbenzyl)-1-piperazinethiocarboxamide]
238 to 241 °C	COc1cc2ncnc(N3CCN(C(=O)Nc4ccc(C5CCCCC5)cc4)CC3)c2cc1OC [Compound 26, N-(4-Cyclohexylphenyl)-4-(6,7-dimethoxy-4-quinazolinyl)-1-piperazinecarboxamide]
147 to 148 °C	CCN(CC)c1ccc(NC(=S)N2CCN(c3ncnc4cc(OC)c(OC)cc34)CC2)cc1 [Compound 72, N-(4-Diethylaminophenyl)-4-(6,7-dimethoxy-4-quinazolinyl)-1-piperazinethiocarboxamide]
110 to 111 °C	C=Cc1ccc(NC(=S)N2CCN(c3ncnc4cc(OC)c(OC)cc34)CC2)cc1 [Compound 24, 4-(6,7-Dimethoxy-4-quinazolinyl)-N-(4-vinylphenyl)-1-piperazinethiocarboxamide]
237 to 238 °C	COc1cc2ncnc(N3CCN(C(=O)Nc4ccc(Cl)c(C(F)(F)F)c4)CC3)c2cc1OC [Compound 49, N-[4-Chloro-3-(trifluoromethyl)phenyl]-4-(6,7-dimethoxy-4-quinazolinyl)-1-piperazinecarboxamide]
217 to 219 °C	COc1cc2ncnc(N3CCN(C(=O)Nc4ccc(Cl)cc4)CC3)c2cc1OC [Compound 40, N-(4-Chlorophenyl)-4-(6,7-dimethoxy-4-quinazolinyl)-1-piperazinecarboxamide]
176 to 177 °C	CCOc1ccc(CNC(=O)N2CCN(c3ncnc4cc(OC)c(OC)cc34)CC2)cc1 [Compound 200, 4-(6,7-Dimethoxy-4-quinazolinyl)-N-(4-ethoxybenzyl)-1-piperazinecarboxamide]
200 to 201 °C	COc1cc2ncnc(N3CCN(C(=O)NCc4ccc(F)cc4)CC3)c2cc1OC [Compound 172, 4-(6,7-Dimethoxy-4-quinazolinyl)-N-(4-fluorobenzyl)-1-piperazinecarboxamide]
174 to 175 °C	CCOc1cc2ncnc(N3CCN(C(=O)Nc4ccc(Oc5ccccc5)cc4)CC3)c2cc1OC [Compound 335, 4-(7-Ethoxy-6-methoxy-4-quinazolinyl)-N-(4-phenoxyphenyl)-1-piperazinecarboxamide]
194 to 195 °C	COc1cc2ncnc(N3CCN(C(=S)Nc4ccc(C(C)C)cc4)CC3)c2cc1OC [Compound 152, 4-(6,7-Dimethoxy-4-quinazolinyl)-N-(4-isopropylphenyl)-1-piperazinethiocarboxamide]
191 to 192 °C	COc1cc2ncnc(N3CCN(C(=O)N[C@@H](C)c4ccccc4)CC3)c2cc1OC [Compound 127, (S)-4-(6,7-Dimethoxy-4-quinazolinyl)-N-(1-phenylethyl)-1-piperazinecarboxamide]
223 to 226 °C	COc1cc2ncnc(N3CCN(C(=O)Nc4cc(C)cc(C)c4)CC3)c2cc1OC [Compound 29, 4-(6,7-Dimethoxy-4-quinazolinyl)-N-(3,5-dimethylphenyl)-1-piperazinecarboxamide]
242 to 246 °C	CCOC(=O)c1ccc(NC(=O)N2CCN(c3ncnc4cc(OC)c(OC)cc34)CC2)cc1 [Compound 89, 4-(6,7-dimethoxy-4-quinazolinyl)-N-(4-ethoxycarbonylphenyl)-1-piperazinecarboxamide]
196 to 197 °C	COc1cc2ncnc(N3CCN(C(=O)Nc4cccc(C(C)C)c4)CC3)c2cc1OC [Compound 150, 4-(6,7-Dimethoxy-4-quinazolinyl)-N-(3-isopropylphenyl)-1-piperazinecarboxamide]
222 to 224 °C	COc1cc2ncnc(N3CCN(C(=S)Nc4cccc(Cl)c4)CC3)c2cc1OC [Compound 175, N-(3-Chlorophenyl)-4-(6,7-dimethoxy-4-quinazolinyl)-1-piperazinethiocarboxamide]
242 to 243 °C	COc1cc2c(N3CCN(C(=O)Nc4ccc(C#N)cc4)CC3)ncnc2cc1C [Compound 334, N-(4-Cyanophenyl)-4-(6-methoxy-7-methyl-4-quinazolinyl)-1-piperazinecarboxamide]
123 to 125 °C	COc1cc2ncnc(N3CCN(C(=O)Nc4cccc([N+](=O)[O-])c4)CC3)c2cc1OC [Compound 76, 4-(6,7-Dimethoxy-4-quinazolinyl)-N-(3-nitrophenyl)-1-piperazinecarboxamide]
273 to 274 °C	COc1cc2ncnc(N3CCN(C(=O)Nc4ccc([N+](=O)[O-])c([N+](=O)[O-])c4)CC3)c2cc1OC
280 to 282 °C	COc1cc2ncnc(N3CCN(C(=O)Nc4c(C(C)C)cccc4C(C)C)CC3)c2cc1OC [Compound 31, N-(2,6-Diisopropylphenyl)-4-(6,7-dimethoxy-4-quinazolinyl)-1-piperazinecarboxamide]
121 to 123 °C	COc1cc2ncnc(N3CCN(C(=O)Nc4ccccc4)CC3)c2cc1OC [Compound 1, 4-(6,7-Dimethoxy-4-quinazolinyl)-N-phenyl-1-piperazinecarboxamide]
